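All cell lines were grown in 96-well plates and treated with compound for 48 hours. At the GI50, growth is halved.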 Activity calls are given as the source filed them. Rule as the data show it: active = GI50 up to about 1.1 µM and inactive = higher.

Some test systems named below: SR; COLO 205; SN12C; HT-29; HCT-15; NCI-H23; HCT-116; SK-OV-3; EKVX; HCC 2998; SNB-19; A498; SK-MEL-28.
Holding throughout (test): NCI tumour cell line growth inhibition, 48 h

Regarding `C=C(Br)C(C)(Cl)CCC(Br)C(C)(C)Br` (stereo unspecified), the GI50 is 22.1 µM (inactive) with SR; 57 µM (inactive) with COLO 205; > 100 µM (inactive) in the experiment with SN12C; 47.2 µM (inactive) with HT-29; 67 µM with HCT-15; 72.8 µM (inactive) with NCI-H23. Also, the GI50 is 31.9 µM (inactive) in the experiment on HCT-116 and > 100 µM (inactive) with SK-OV-3.
As to `N#C/C(=C\c1ccc(O)c(O)c1)c1c(C#N)c(N)nn1-c1ccccc1`, the GI50 with EKVX was 7.45 µM (inactive); with COLO 205 it was 24.1 µM (inactive); in the experiment on HCC 2998, 9.66 µM (inactive); in the experiment on SN12C, 10.3 µM (inactive); in the experiment on HT-29, 22 µM (inactive); in the experiment on HCT-15, 11.7 µM. In addition, the GI50 in the experiment on SNB-19 is 7.19 µM (inactive); with NCI-H23, 7.43 µM (inactive); in the experiment with HCT-116, 5.48 µM (inactive); with SK-OV-3 it was 12.9 µM (inactive); with A498, 2.76 µM (inactive); in the experiment with SK-MEL-28, 20 µM (inactive).
As for `CCOC(=N)/C(=C1\OC(=N)C(c2ccc(Cl)cc2)=C1O)c1ccc(Cl)cc1`, the GI50 in the experiment on SR was 16.7 µM (inactive); in the experiment on EKVX, 18.1 µM (inactive); in the experiment on COLO 205, 16.6 µM (inactive); in the experiment on HCC 2998, 18.1 µM (inactive); in the experiment with SN12C, 14.8 µM (inactive); in the experiment on HT-29 it was 23.2 µM (inactive). Also, the GI50 with SNB-19 is 22.7 µM (inactive); in the experiment on NCI-H23 it was 15.3 µM (inactive); with HCT-116, 16.9 µM (inactive); in the experiment on SK-OV-3 it was 36.5 µM (inactive); in the experiment with A498, 17.8 µM (inactive); in the experiment on SK-MEL-28 it was 16 µM (inactive).
Regarding `CC12O[C@H](c3ccccc3)[C@H](c3ccccc3)N1C(=O)C1(C(=O)OCc3ccccc3)CC12` (stereo partly specified), the GI50 in the experiment with COLO 205 is 89.9 µM (inactive); with HCC 2998, > 100 µM (inactive); in the experiment with SN12C it was > 100 µM (inactive); with HT-29, 76 µM (inactive); in the experiment with HCT-15, 86.5 µM; in the experiment on SNB-19 it was > 100 µM (inactive). Besides, the figures for the GI50 in the experiment on HCT-116, in the experiment with SK-OV-3 and with A498 were 98.2 µM (inactive), > 100 µM (inactive) and > 100 µM (inactive), respectively.
Regarding `O=C(N/C(=C\c1ccc(/C=C(\NC(=O)c2ccccc2)c2nc3c(O)nc(S)nc3[nH]2)cc1)c1nc2c(O)nc(S)nc2[nH]1)c1ccccc1`, the GI50 in the experiment on EKVX is > 100 µM (inactive); with COLO 205, > 100 µM (inactive); with HCC 2998, > 100 µM (inactive); in the experiment with SN12C it was > 100 µM (inactive); with HT-29 it was 75 µM (inactive); in the experiment on HCT-15 it was over 100 µM. In addition, the GI50 in the experiment with SNB-19 was > 100 µM (inactive); in the experiment on NCI-H23, 55.7 µM (inactive); in the experiment on HCT-116, 44.8 µM (inactive); in the experiment with SK-OV-3 it was > 100 µM (inactive); in the experiment on A498, 40.6 µM (inactive); in the experiment on SK-MEL-28, 29.3 µM (inactive).
Consider `COc1cc(C(C)O)c[n+](CCC2CNc3ccccc32)c1` (stereo unspecified), for which the GI50 in the experiment on SR is > 100 µM (inactive); with EKVX it was 33 µM (inactive); with COLO 205, 43.3 µM (inactive); in the experiment on HCC 2998 it was > 100 µM (inactive); in the experiment with SN12C, > 100 µM (inactive); in the experiment on HT-29 it was 71.6 µM (inactive). In addition, the GI50 in the experiment with HCT-15 is over 100 µM; with SNB-19, > 100 µM (inactive); in the experiment with NCI-H23, > 100 µM (inactive); with HCT-116, > 100 µM (inactive); in the experiment with A498, > 100 µM (inactive).
As to `O/N=C1/CCC/C1=C\c1ccccc1`, the GI50 was 12.4 µM (inactive) in the experiment with SR; 21.9 µM (inactive) in the experiment with EKVX; > 100 µM (inactive) in the experiment with COLO 205; > 100 µM (inactive) in the experiment with HCC 2998; > 100 µM (inactive) with SN12C; > 10 µM (inactive) with HT-29. Further, the GI50 is over 100 µM in the experiment on HCT-15; > 100 µM (inactive) in the experiment on SNB-19; > 100 µM (inactive) in the experiment with NCI-H23; > 100 µM (inactive) with HCT-116; > 100 µM (inactive) in the experiment on SK-OV-3; > 100 µM (inactive) in the experiment with SK-MEL-28.
Regarding `Cc1ccc(S(=O)(=O)OCC23CCC(C2)C2CC23)cc1` (stereo unspecified), the GI50 with SR was > 100 µM (inactive); in the experiment with COLO 205, > 100 µM (inactive); in the experiment with HCC 2998 it was > 100 µM (inactive); in the experiment on SN12C, > 100 µM (inactive); with HT-29, > 100 µM (inactive); in the experiment with HCT-15, over 100 µM. Besides, the GI50 in the experiment with SNB-19, in the experiment on NCI-H23, with HCT-116, in the experiment on SK-OV-3, in the experiment with A498 and with SK-MEL-28 was > 100 µM (inactive) each time.
Turning to `Cc1ccc(NC(=O)CCc2nc(N)nc(N)c2-c2ccccc2)cc1C`, the GI50 with SR, in the experiment on EKVX, in the experiment with COLO 205, in the experiment with HCC 2998, in the experiment with SN12C and in the experiment with HT-29 was > 100 µM (inactive) throughout. Besides, the GI50 is over 100 µM with HCT-15; > 100 µM (inactive) with SNB-19; > 100 µM (inactive) in the experiment on NCI-H23; > 100 µM (inactive) in the experiment on HCT-116; > 100 µM (inactive) in the experiment with SK-OV-3; > 100 µM (inactive) in the experiment on A498. For the same compound, in the experiment with SK-MEL-28, the GI50 is > 100 µM (inactive).
As for `CC(C)COC1Sc2ccccc2S1`, the GI50 in the experiment with EKVX was 20 µM (inactive); with COLO 205, 32.4 µM (inactive); with HCC 2998, 28.7 µM (inactive); in the experiment on SN12C, 18.8 µM (inactive); in the experiment with HT-29 it was 13.1 µM (inactive); in the experiment with HCT-15, 22.4 µM. Further, the GI50 with SNB-19 is 18.1 µM (inactive); in the experiment with NCI-H23, 22.3 µM (inactive); in the experiment with SK-OV-3, 28.1 µM (inactive); with SK-MEL-28, 17.4 µM (inactive).
For the compound `COc1cc2nc(NCCCCCNC(=O)c3ccco3)nc(N)c2cc1OC`, the GI50 in the experiment on EKVX was > 100 µM (inactive); with COLO 205, 18.2 µM (inactive); in the experiment on HCC 2998 it was 19.4 µM (inactive); in the experiment with SN12C, 39.8 µM (inactive); in the experiment on HT-29, 33.9 µM (inactive); in the experiment with HCT-15, over 100 µM. Besides, the GI50 in the experiment on SNB-19 was 38.2 µM (inactive); in the experiment with NCI-H23, 87.7 µM (inactive); in the experiment with SK-OV-3 it was 32.4 µM (inactive); in the experiment with A498 it was 80.2 µM (inactive); with SK-MEL-28, 19.2 µM (inactive).
For `O=C(C[n+]1ccccc1)N/N=C(/CCC(=O)N(Cc1ccccc1)Cc1ccccc1)CC(=O)c1ccccc1`, the GI50 in the experiment with SR, in the experiment on EKVX, in the experiment on COLO 205, with HCC 2998, with SN12C and in the experiment on HT-29 was > 100 µM (inactive) in each case. Moreover, the GI50 with HCT-15 was over 100 µM; with SNB-19 it was > 100 µM (inactive); in the experiment with NCI-H23, > 100 µM (inactive); with HCT-116, > 100 µM (inactive); with A498, > 100 µM (inactive); in the experiment on SK-MEL-28 it was > 100 µM (inactive).
Turning to `O=[N+]([O-])c1ccccc1/C=N/C12CC3CC(CC(C3)C1)C2`, the GI50 was > 100 µM (inactive) in the experiment on EKVX; > 100 µM (inactive) in the experiment with COLO 205; 38.1 µM (inactive) in the experiment on HCC 2998; > 100 µM (inactive) with SN12C; 34.3 µM (inactive) in the experiment on HT-29; 42.1 µM in the experiment with HCT-15. The GI50 in the experiment on SNB-19 was 49.9 µM (inactive); in the experiment with NCI-H23, > 100 µM (inactive); in the experiment with HCT-116 it was 39.3 µM (inactive); in the experiment with SK-OV-3 it was > 100 µM (inactive); in the experiment on A498, > 100 µM (inactive); in the experiment with SK-MEL-28 it was > 100 µM (inactive).
As for `CC(C)c1c2[nH]c3ccccc3c2c(C(C)C)c2[nH]c3ccccc3c12`, the GI50 is 24.7 µM (inactive) in the experiment with SR; > 100 µM (inactive) in the experiment on EKVX; 51.9 µM (inactive) in the experiment on COLO 205; > 34.8 µM (inactive) in the experiment with HCC 2998; 35.6 µM (inactive) in the experiment with SN12C; 10.9 µM (inactive) in the experiment with HT-29. Further, the GI50 in the experiment with HCT-15 is 16 µM; in the experiment on SNB-19 it was > 100 µM (inactive); with NCI-H23, > 100 µM (inactive); with HCT-116, > 67.3 µM (inactive); in the experiment on SK-OV-3 it was > 100 µM (inactive); in the experiment with A498 it was > 100 µM (inactive). The GI50 with SK-MEL-28 was > 100 µM (inactive).
As to `CC1(C)OC2CC3COC(=O)C3CC2O1` (stereo unspecified), the GI50 in the experiment with SR, in the experiment on EKVX, in the experiment with COLO 205, in the experiment with HCC 2998, in the experiment with SN12C and in the experiment with HT-29 was > 100 µM (inactive) each time. Besides, the GI50 with HCT-15 was over 100 µM; in the experiment on NCI-H23 it was > 100 µM (inactive); with HCT-116, > 100 µM (inactive); in the experiment on SK-OV-3 it was > 100 µM (inactive); in the experiment with A498, > 100 µM (inactive); in the experiment with SK-MEL-28, > 100 µM (inactive).
For the compound `Nc1ncnc2c1ncn2[C@]1(CO)C=C(CO)C(O)C1O` (stereo partly specified), the GI50 in the experiment on SR was > 100 µM (inactive); in the experiment with COLO 205 it was > 100 µM (inactive); with HCC 2998, > 100 µM (inactive); in the experiment on SN12C, > 100 µM (inactive); in the experiment with HT-29, > 100 µM (inactive); in the experiment on HCT-15 it was over 100 µM. Moreover, the GI50 was > 100 µM (inactive) with SNB-19; > 100 µM (inactive) with NCI-H23; 73.1 µM (inactive) with HCT-116; > 100 µM (inactive) in the experiment with SK-OV-3; > 100 µM (inactive) in the experiment on A498; > 100 µM (inactive) in the experiment with SK-MEL-28.
Take `Cc1cc(O)cc2oc(=O)c3c(O)cc(O)cc3c12` [ALTERNARIOL]: the GI50 was 3.69 µM (inactive) with SR; 6.71 µM (inactive) in the experiment on EKVX; 27.4 µM (inactive) with COLO 205; 18.5 µM (inactive) with HCC 2998; 50.5 µM (inactive) in the experiment on SN12C; 39.3 µM (inactive) in the experiment on HT-29. The GI50 in the experiment on HCT-15 was 18.2 µM; in the experiment on SNB-19, 20 µM (inactive); in the experiment with NCI-H23, 20.7 µM (inactive); in the experiment with HCT-116, 17.6 µM (inactive); with SK-OV-3, 18.5 µM (inactive); with A498 it was 40.1 µM (inactive). Also, the GI50 in the experiment on SK-MEL-28 was > 100 µM (inactive).

These data come from ChEMBL document CHEMBL1201862, “PubChem BioAssay data set” (2004).
